Like-named read-outs stand apart in the source and are kept apart here.
Assays:
Format in all cases: cell-based
[1] = target: proteins of HEK293T cells transiently overexpressing caspase-6 (Homo sapiens, UniProt P08865); conditions: exp_ref Probe; protein RPSA (P08865); analysis C6
[2] = target: proteins of HEK293T cells transiently overexpressing caspase-6 (Homo sapiens, UniProt P10599); conditions: exp_ref Probe; protein TXN (P10599); analysis C6
[3] = target: proteins of HEK293T cells transiently overexpressing caspase-6 (Homo sapiens, UniProt P21333)
proteins of HEK293T cells transiently overexpressing caspase-6 (Homo sapiens, UniProt P21333), sequence (P21333 whole entry): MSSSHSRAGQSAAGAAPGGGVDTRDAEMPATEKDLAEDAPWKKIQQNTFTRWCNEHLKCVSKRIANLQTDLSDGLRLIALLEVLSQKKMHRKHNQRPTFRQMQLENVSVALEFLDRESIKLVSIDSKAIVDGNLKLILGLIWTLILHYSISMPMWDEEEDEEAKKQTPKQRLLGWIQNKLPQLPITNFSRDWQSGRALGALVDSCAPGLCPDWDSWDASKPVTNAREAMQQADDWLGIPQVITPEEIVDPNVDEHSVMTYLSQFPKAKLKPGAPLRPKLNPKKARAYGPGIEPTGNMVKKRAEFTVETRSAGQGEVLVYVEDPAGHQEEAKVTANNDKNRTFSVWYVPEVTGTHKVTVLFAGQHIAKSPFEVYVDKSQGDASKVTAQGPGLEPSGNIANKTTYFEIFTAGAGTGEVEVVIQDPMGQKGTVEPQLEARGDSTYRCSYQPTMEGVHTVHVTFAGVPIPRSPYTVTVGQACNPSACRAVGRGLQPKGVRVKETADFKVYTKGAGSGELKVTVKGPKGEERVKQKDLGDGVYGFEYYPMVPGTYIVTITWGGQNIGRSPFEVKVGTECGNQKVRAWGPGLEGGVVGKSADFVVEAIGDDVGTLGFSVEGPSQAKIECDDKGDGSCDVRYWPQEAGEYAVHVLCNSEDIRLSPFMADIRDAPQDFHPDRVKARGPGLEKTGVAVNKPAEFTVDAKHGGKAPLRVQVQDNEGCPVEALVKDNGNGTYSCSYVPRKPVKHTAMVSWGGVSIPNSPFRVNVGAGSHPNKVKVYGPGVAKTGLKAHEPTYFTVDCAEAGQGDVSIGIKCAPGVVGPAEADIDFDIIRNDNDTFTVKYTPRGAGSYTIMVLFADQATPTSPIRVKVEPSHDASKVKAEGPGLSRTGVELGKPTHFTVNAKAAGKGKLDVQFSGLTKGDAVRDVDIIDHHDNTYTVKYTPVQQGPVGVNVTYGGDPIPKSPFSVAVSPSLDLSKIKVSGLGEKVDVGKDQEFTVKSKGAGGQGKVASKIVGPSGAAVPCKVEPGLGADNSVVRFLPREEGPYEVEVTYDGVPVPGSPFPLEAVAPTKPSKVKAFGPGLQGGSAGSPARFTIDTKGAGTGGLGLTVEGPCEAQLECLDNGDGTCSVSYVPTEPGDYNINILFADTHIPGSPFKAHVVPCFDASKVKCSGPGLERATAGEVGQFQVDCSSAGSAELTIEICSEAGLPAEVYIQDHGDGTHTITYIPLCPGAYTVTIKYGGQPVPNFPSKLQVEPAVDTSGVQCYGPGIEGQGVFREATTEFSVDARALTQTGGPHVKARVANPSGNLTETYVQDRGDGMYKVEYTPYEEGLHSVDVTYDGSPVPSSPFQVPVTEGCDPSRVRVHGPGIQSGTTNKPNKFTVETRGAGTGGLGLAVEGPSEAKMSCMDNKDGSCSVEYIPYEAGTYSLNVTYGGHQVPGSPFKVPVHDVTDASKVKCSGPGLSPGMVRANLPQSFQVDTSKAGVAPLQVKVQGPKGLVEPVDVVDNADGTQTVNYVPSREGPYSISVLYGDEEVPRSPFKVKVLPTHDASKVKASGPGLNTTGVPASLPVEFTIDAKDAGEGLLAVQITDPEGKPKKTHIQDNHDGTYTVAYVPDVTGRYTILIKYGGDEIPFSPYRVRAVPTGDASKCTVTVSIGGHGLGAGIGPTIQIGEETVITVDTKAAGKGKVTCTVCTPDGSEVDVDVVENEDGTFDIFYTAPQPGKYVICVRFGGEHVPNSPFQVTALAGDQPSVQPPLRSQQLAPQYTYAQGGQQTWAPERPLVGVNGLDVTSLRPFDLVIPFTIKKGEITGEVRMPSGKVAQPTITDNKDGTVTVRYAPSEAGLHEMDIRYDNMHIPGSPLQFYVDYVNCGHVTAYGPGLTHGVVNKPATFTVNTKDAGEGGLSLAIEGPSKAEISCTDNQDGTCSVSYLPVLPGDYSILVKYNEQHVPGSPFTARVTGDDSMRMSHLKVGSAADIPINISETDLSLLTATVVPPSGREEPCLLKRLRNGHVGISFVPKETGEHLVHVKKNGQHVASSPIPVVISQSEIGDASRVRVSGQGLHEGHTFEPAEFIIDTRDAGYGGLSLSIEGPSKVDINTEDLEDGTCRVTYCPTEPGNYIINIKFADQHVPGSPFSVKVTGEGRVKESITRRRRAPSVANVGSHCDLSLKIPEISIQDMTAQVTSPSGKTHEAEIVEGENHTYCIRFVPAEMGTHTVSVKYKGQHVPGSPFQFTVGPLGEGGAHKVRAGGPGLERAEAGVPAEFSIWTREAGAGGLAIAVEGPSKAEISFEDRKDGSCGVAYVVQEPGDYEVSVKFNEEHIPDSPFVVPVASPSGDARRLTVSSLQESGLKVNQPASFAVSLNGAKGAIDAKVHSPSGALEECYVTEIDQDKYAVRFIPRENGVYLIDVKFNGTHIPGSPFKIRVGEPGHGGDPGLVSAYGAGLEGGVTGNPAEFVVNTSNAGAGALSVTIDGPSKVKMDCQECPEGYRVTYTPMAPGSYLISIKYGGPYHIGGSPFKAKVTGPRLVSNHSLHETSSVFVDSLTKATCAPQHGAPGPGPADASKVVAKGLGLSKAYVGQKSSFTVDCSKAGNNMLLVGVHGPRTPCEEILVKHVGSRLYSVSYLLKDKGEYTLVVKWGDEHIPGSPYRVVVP

[4] = target: proteins of HEK293T cells transiently overexpressing caspase-6 (Homo sapiens, UniProt P23396); conditions: exp_ref Probe; protein RPS3 (P23396); analysis C6
[5] = target: proteins of HEK293T cells transiently overexpressing caspase-6 (Homo sapiens, UniProt P25786); conditions: Probe; protein PSMA1 P25786
proteins of HEK293T cells transiently overexpressing caspase-6 (Homo sapiens, UniProt P25786), sequence (P25786 whole entry): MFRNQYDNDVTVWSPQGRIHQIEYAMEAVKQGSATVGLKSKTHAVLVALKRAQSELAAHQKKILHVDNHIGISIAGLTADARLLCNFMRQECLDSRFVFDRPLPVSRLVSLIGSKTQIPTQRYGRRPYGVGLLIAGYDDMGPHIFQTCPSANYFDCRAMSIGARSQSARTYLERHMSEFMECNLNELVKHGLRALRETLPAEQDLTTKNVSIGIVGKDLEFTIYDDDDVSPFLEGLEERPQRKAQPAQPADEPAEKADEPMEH

[6] = target: proteins of HEK293T cells transiently overexpressing caspase-6 (Homo sapiens, UniProt P31948)
proteins of HEK293T cells transiently overexpressing caspase-6 (Homo sapiens, UniProt P31948), sequence (P31948 whole entry): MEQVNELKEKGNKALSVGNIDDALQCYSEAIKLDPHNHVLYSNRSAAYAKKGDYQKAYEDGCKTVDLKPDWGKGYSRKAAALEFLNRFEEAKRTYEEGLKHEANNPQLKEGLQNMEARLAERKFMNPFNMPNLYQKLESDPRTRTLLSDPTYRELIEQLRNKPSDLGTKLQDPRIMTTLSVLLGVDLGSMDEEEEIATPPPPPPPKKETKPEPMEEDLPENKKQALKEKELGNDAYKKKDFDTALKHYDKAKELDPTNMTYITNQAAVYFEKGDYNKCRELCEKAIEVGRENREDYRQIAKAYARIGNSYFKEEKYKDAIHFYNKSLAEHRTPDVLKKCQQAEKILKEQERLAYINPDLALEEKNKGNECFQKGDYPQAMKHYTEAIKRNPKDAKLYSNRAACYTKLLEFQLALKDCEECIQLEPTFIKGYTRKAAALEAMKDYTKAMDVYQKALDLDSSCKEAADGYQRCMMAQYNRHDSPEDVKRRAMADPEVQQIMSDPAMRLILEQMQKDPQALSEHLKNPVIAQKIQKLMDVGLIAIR

[7] = target: proteins of HEK293T cells transiently overexpressing caspase-6 (Homo sapiens, UniProt P61978); conditions: protein HNRNPK (P61978)
[8] = target: proteins of HEK293T cells transiently overexpressing caspase-6 (Homo sapiens, UniProt P62826); conditions: exp_ref Probe; protein RAN (P62826); analysis C6
[9] = target: proteins of HEK293T cells transiently overexpressing caspase-6 (Homo sapiens, UniProt Q14974); conditions: protein KPNB1 (Q14974)
proteins of HEK293T cells transiently overexpressing caspase-6 (Homo sapiens, UniProt Q14974), sequence (Q14974 whole entry): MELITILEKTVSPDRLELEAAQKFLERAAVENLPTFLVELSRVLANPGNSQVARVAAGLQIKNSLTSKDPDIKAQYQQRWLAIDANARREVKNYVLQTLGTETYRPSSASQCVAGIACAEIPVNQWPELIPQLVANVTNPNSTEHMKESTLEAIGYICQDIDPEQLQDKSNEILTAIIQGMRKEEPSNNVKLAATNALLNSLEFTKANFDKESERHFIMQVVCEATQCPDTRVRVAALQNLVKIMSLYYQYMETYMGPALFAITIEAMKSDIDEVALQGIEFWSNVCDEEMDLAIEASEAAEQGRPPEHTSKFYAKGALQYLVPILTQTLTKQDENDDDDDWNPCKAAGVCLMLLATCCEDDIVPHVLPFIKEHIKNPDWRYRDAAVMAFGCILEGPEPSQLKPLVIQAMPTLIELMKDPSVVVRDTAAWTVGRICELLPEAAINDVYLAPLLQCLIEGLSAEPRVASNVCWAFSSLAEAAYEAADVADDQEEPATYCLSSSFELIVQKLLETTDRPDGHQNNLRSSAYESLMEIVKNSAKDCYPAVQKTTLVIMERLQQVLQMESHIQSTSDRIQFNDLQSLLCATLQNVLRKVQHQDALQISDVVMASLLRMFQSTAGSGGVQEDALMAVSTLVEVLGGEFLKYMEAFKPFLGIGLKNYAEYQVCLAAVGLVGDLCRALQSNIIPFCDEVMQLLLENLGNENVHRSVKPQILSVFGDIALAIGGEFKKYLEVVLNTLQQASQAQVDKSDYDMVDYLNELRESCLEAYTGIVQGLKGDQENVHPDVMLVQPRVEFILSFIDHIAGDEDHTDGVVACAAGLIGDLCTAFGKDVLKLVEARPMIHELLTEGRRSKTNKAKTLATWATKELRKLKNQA

[10] = target: proteins of HEK293T cells transiently overexpressing caspase-6 (Homo sapiens, UniProt Q15393); conditions: exp_ref Probe; protein SF3B3 (Q15393); analysis C6
[11] = target: T1, proteins of HEK293T cells transiently overexpressing caspase-6 (Homo sapiens, UniProt Q8NC51)
T1 sequence (Q8NC51 1-408): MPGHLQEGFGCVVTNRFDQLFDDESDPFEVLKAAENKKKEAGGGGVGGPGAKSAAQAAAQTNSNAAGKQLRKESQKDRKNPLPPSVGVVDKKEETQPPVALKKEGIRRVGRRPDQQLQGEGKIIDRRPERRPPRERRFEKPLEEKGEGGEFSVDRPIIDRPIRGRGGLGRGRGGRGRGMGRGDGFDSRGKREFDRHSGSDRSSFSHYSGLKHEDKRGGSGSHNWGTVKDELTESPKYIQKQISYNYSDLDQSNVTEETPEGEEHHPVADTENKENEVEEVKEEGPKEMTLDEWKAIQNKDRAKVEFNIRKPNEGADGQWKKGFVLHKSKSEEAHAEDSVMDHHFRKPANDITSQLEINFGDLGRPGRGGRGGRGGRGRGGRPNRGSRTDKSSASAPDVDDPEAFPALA

[12] = target: proteins of HEK293T cells transiently overexpressing caspase-6 (Homo sapiens, UniProt Q8TCD1); conditions: protein C18orf32 (Q8TCD1)
proteins of HEK293T cells transiently overexpressing caspase-6 (Homo sapiens, UniProt Q8TCD1), sequence (Q8TCD1 whole entry): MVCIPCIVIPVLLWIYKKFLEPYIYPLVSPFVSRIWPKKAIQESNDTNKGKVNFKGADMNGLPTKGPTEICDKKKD

[13] = target: proteins of HEK293T cells transiently overexpressing caspase-6 (Homo sapiens, UniProt Q9BZZ5); conditions: exp_ref Probe; protein API5 (Q9BZZ5); analysis C6
proteins of HEK293T cells transiently overexpressing caspase-6 (Homo sapiens, UniProt Q9BZZ5), sequence (Q9BZZ5 whole entry): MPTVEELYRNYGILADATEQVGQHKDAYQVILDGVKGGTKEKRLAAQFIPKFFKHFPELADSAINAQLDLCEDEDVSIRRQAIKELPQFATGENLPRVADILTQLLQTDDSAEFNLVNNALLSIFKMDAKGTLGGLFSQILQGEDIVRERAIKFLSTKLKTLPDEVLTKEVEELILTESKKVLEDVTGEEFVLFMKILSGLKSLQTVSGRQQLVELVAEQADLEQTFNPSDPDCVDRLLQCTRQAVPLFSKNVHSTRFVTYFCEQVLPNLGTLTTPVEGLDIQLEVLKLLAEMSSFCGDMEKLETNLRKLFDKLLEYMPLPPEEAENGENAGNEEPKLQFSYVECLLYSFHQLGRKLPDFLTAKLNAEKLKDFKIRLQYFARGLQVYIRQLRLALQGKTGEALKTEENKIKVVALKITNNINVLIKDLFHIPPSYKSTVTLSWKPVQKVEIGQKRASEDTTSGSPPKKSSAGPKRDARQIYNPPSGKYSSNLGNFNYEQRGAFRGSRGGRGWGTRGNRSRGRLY

[14] = target: proteins of HEK293T cells transiently overexpressing caspase-6 (Homo sapiens, UniProt Q9Y490); conditions: exp_ref Probe; protein TLN1 (Q9Y490); analysis C6

proteins of HEK293T cells transiently overexpressing caspase-6 (Homo sapiens, UniProt P10599), sequence (P10599 whole entry): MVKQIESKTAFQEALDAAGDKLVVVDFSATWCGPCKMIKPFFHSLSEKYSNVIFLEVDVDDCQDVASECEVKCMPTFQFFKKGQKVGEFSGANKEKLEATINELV

For C#CCOc1ccc([C@@H]2C[C@@H](C(=O)Nc3ccc(OC(F)(F)F)cc3)CN(S(=O)(=O)C=C)C2)cc1 (relative stereo) [13-t], the enrich.exp.med [1] was -0.2936, the enrich.exp.med [2] was 0.866 and the enrich.exp.med ([3]; Probe, protein FLNA P21333) was -0.9107. For the same molecule, the enrich.exp.med.lin ([3]; protein FLNA (P21333)) was 0.5319, the enrich.exp.med.log2 ([3]; protein FLNA (P21333)) was -0.9107 and the enrich.exp.med [4] was 0.6101. The enrich.exp.med [5] was -2.151, the enrich.exp.med ([6]; Probe, protein STIP1 P31948) was -0.591 and the enrich.exp.med.lin ([6]; protein STIP1 (P31948)) was 0.6639. For the same molecule, the enrich.exp.med.log2 ([6]; protein STIP1 (P31948)) was -0.591, the enrich.exp.med ([7]; exp_ref Probe, analysis C6) was 0.3594 and the enrich.exp.med.lin [7] was 1.283. For the same molecule, the enrich.exp.med.log2 [7] was 0.3594, the enrich.exp.med [8] was 0.5777 and the enrich.exp.med ([9]; exp_ref Probe, analysis C6) was 0.7787. It also gave an enrich.exp.med.lin [9] of 1.716, an enrich.exp.med.log2 [9] of 0.7787 and an enrich.exp.med [10] of -0.1408. For the same molecule, the enrich.exp.med ([11]; Probe, protein SERBP1 Q8NC51) was -1.6881, the enrich.exp.med.lin ([11]; protein SERBP1 (Q8NC51)) was 0.3103 and the enrich.exp.med.log2 ([11]; protein SERBP1 (Q8NC51)) was -1.6881. It also gave an enrich.exp.med.lin [12] of 5.403, an enrich.exp.med.log2 [12] of 2.434 and an enrich.exp.med.lin ([12]; Expt Probe, analysis C6) of 5.403. For the same molecule, the enrich.exp.med.log2 ([12]; Expt Probe, analysis C6) was 2.434, the enrich.exp.med ([12]; exp_ref Probe, analysis C6) was 2.434 and the enrich.exp.med [13] was 0.9484. The enrich.exp.med [14] was 0.6042.

Reference: article PMC10176470, “Engaging a Non-catalytic Cysteine Residue Drives Potent and Selective Inhibition of Caspase-6” (Journal of the American Chemical Society, 2023)
